According to patent EP0773292A1, “Immortalised embryonic hippocampal cells and their use” (BAYER AG, priority 1995, dated 1997):

What was measured:
Type in all cases: cell-based, murine
HNMMCV13.1.E [1] = assay: Electrophysiology: whole-cell patch-clamp, ligand-activated currents; conditions: 13.1.E; membrane potential clamped to -70mV
Method: (§1) Electrophysiological setup: Membrane currents were measured with the patch-clamp technique in the whole-cell recording configuration (Hamill et al. 1981, Pfluegers Arch. 391:85-100). Current signals were amplified with conventional electronics (EPC-9 amplifier, HEKA Elektronik GmbH, Lambrecht, Germany), filtered at 10kHz, and sampled at 5 kHz by an interface connected to an IBM AT-compatible computer system, which also served as a stimulus generator.
(§2) Solutions and electrodes: The standard bathing solution contained (in mM): Nacl 150, KCL 5, MgCl2 1.8, HEPES 5, and glucose 10. In some experiments an equimolar amount of NaCl was replaced by 5mM BaCl2. Recording pipettes had resistances about 5MΩ (Hilgenberg, Malsfeld, Germany). The pipettes contained (in mM): KCL 140, CaCl2 0.5, EGTA 5, MgCl2 2, and HEPES 10. The pH was adjusted to 7.4. In some experiments the pipette solution was designed to minimize the contribution of voltage-activated currents. In this case, investigating the ligand-activated currents, the pipette solution contained (in mM): CsCl 140, EGTA 10, and HEPES 10.
(§3) Ligands were dissolved in the extracellular saline solution and applied via an U-tube application system. To record ligand-induced currents, the membrane potential was clamped to -70mV. For measurements of voltage-activated currents, cells were held at -70mV and every second the membrane was stepped through a 50 msec. de- or hyperpolarising test pulse to a potential between -170 and +20 mV.

HC e/n XVB cells = assay: as above; conditions: for ligand-activated currents: membrane potential clamped to -70mV
Method: as §1, §2, §3

HNMMCV14.1.A [2] = assay: as above
Method: as §1, §2, §3

HNMMCV13.1.E [3] = assay: Ca2+-imaging (Fura-2), rise in intracellular calcium
Method: (§4) Fluorescent Probe: Dynamic changes of intracellular calcium concentration were measured using the Fura-2 fluorescent probe (Roe et al. 1990, Cell Calcium 11:63-73). This fluorescent dye was chosen because of its selectivity, high quantum yield and extinction co-efficient. Fura-2 permeates the living cell as a acetoxymethylester and becomes trapped within the cell after hydrolysis by intracellular esterases. The calcium-sensitive free acid of Fura-2 is able to bind to calcium ions inside the cell. Fura-2 has an excitation maximum at 380 nm and the Fura2/calcium complex peaks at 340 nm. A change in intracellular calcium concentration was calculated by recording fluorescent video images at wavelengths of 340nm and 380nm excitation and 510nm emission and by dividing the grey values of the digitized video images of 380nm from 340nm.
(§5) Loading cells with Fura-2: A stock solution with 2mM Fura-2-acetoxymethylester in dimethylsulfoxide (DMSO) was diluted to 5-10 µM with serum free Minimal Essential Medium (MEM, Gibco) containing 1.5% bovine serum albumin and 5 mM calcium chloride. The cells were incubated in a Falcon 96 well plate for 45-60 minutes at 37°C. Subsequently the cells were washed twice in N-(2-Hydroxyethyl)piperazine-N'-(2-ethanesulfonic acid) (HEPES, 5mM) buffered Tyrode solution (HEPES buffered salt solution containing 130 mM NaCl, 5 mM KCl, 2 mM CaCl2, 1 mM MgCl2, 5mM NaHCO3, 11 mM Glucose).
(§6) Imaging procedure: 100 µl of Tyrode buffer was added to the plate wells and the cells were sequencially exposed to light at 340 nm and 380 nm under a fluorescent microscope (Nikon Diaphot). The exposition time was 100 ms. A series of video images at 3 second intervals was acquired and stored as digitised pictures in the image boards of an image analysis computer (Leica, Quantimet 570). After the acquisition of 8 images the test substances were applied. The grey levels of the cells, which correspond to the fluorescence intensity, were measured in the recorded video images. The ratio was determined by dividing the measured grey levels of the "380 nm images" by the grey levels of the "340 nm images" either from averaged images or from individual cells. For averaged results, the grey levels were measured over the whole images.
(§7) The cells were loaded with Fura 2/AM between day 3 and 7 in culture. A number of agonists were tested for their ability to activate specific receptors on the cell surface which leads to a rise in intracellular calcium. The rise in calcium concentration in the cytoplasm can occur after activation of specific calcium channels in the cell membrane, after activation of neurotransmitter receptors directly coupled to ion channels that are permeable to calcium ions (i.e. NMDA or AMPA type glutamate receptors), or by activation of receptors, which propagate the signal through the activation of specific G-proteins, which regulate the activity of different enzymes in the interior of the cell (Connor, Cell Calcium 14 (1993), 185-200; Crouch and Hendry, Medical Res. Rev. 13 (1993), 105-123). The activation of phospholipase C generates the second messengers diacylglycerol and inositoltriphosphate from phospholipids in the cell membrane. The binding of inositoltriphosphate to receptors localised on internal vesicles which store calcium ions leads to a transient rise in the concentration of calcium ions in the cytoplasm (Berridge, M.J. 1993, Nature 361: 315-325).

HC e/n XV.B cells = assay: as above
Method: as §4, §5, §6, §7

HNMMCV13.1.F = assay: as above
Method: as §4, §5, §6, §7

HNMMCV14.1.A [4] = assay: as above
Method: as §4, §5, §6, §7

HNMMCV11.2.0 = assay: as above
Method: as §4, §5, §6, §7

[5] = tested on: v-myc-expressing lines and clones; assay: Induction of differentiation; conditions: 1mM dbcAMP
Method: For experiments in the presence of growth factors or other differentiation inducing agents, the primary cell cultures or the immortalised cell lines were cultured in the presence of one or a combination of the following: β-FGF, 1ng/ml, (Collaborative Research), EGF; 5 ng/ml or 10 ng/ml, (Collaborative Research), NGF (10 ng/ml, Collaborative Reasearch), dibutyryl cyclic adenosine monophosphate (dbcAMP, 1mM, Sigma, Heidelberg), retinoic acid (5 µM; Sigma), IL-7 (50 U/ml), TGFα (5ng/ml).
To induce differentiation in vitro several combinations of the following factors were used: retinoic acid (RA, 10 µM), NGF, β-FGF, EGF, IL-7, TGFα, dbcAMP (1mM). In addition the effect of co-culture with cortical glial cells originating from postnatal day 0 to 1 and granule neurons originating from postnatal day 6 mice was investigated.

N[C@@H](CCC(=O)O)C(=O)O [Glutamate, L-glutamate]
ligand-activated currents (HNMMCV13.1.E [1]): + (+: 10-30% positive cells)
ligand-activated currents (HC e/n XVB cells; XV. B (with EGF, undifferentiated)): -
ligand-activated currents (HC e/n XVB cells; XV. B/ - EGF (differentiated)): ++ (++: 30-70% positive cells)

C=C(C)[C@H]1CN[C@H](C(=O)O)[C@H]1CC(=O)O [Kainate, kainic acid]
ligand-activated currents (HNMMCV14.1.A [2]): + / -
I/V curve of the ligand response (HC e/n XVB cells): linear
ligand induced inward currents (HC e/n XVB cells): evoked responses with different peak amplitudes
reversal potential of the ligand-activated current (HC e/n XVB cells): 0 mV
transient calcium currents after the application of agonists and antagonists (HNMMCV13.1.E [3]): -
transient rise in intracellular calcium concentration (HNMMCV13.1.E [3]): did not result in a transient rise in intracellular calcium concentrations
transient rise in intracellular calcium concentration (HC e/n XV.B cells): reproducible calcium signal
transient calcium currents after the application of agonists and antagonists (HNMMCV13.1.F): -
transient rise in intracellular calcium concentration (HNMMCV13.1.F): did not result in a transient rise in intracellular calcium concentrations
transient calcium currents after the application of agonists and antagonists (HNMMCV14.1.A [4]): -
transient rise in intracellular calcium concentration (HNMMCV14.1.A [4]): did not result in a transient rise in intracellular calcium concentrations
transient calcium currents after the application of agonists and antagonists (HNMMCV11.2.0): -
transient rise in intracellular calcium concentration (HNMMCV11.2.0): did not result in a transient rise in intracellular calcium concentrations

CCCC(=O)Nc1ncnc2c1ncn2[C@@H]1O[C@@H]2COP(=O)(O)O[C@H]2[C@H]1OC(=O)CCC [dbcAMP, dibutyryl cyclic adenosine monophosphate]
expression of MAP-2 ([5]; cell line HNMMCV11.2.): induction of the expression of MAP-2
differentiation of the cells ([5]; v-myc-expressing lines and clones): induced a partial differentiation
